{"source": "patent US20110092544A1", "about": "“FUNGICIDAL PYRIDINES” (E.I. DU PONT DE nemours and company, priority 2008, published 2011)", "key": {"[1]": {"test_system": "Erysiphe graminis f. sp. tritici", "assay": "Test A: wheat powdery mildew, preventive spray on wheat seedlings, visual disease rating", "assay_type": "in vivo", "settings": "Blumeria graminis, 192 h", "in_short": "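Acetone/water (50/50) suspension with 250 ppm surfactant sprayed to run-off on wheat seedlings (200 ppm ≈ 500 g/ha); inoculated next day with E. graminis spore dust. Incubated 8 days at 20° C, then visually rated 0–100% disease control versus untreated controls; tests at 200 ppm or 40 ppm.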"}, "[2]": {"test_system": "Puccinia recondite f. sp. tritici", "assay": "Test B: wheat leaf rust, preventive spray on wheat seedlings, visual disease rating", "assay_type": "in vivo", "settings": "192 h", "in_short": "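Wheat seedlings were sprayed to run-off with compound suspension, 200 ppm (≈500 g/ha) or 40 ppm where marked, containing surfactant in acetone/water. Inoculation with Puccinia recondita spores followed one day later, then 24 h in saturated humidity at 20° C and 7 days at 20° C. Disease control was rated visually, 0–100% versus controls.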"}, "[3]": {"test_system": "Septoria tritici", "assay": "Test C: wheat leaf blotch, preventive spray on wheat seedlings, visual disease rating", "assay_type": "in vivo", "settings": "Zymoseptoria tritici, 504 h", "in_short": "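Wheat seedlings sprayed to run-off with compound in acetone/water plus 250 ppm surfactant at 200 ppm (≈500 g/ha), or 40 ppm where marked; inoculated with Septoria tritici next day. Held saturated at 20 °C for 48 h, then 19 days at 20 °C; disease control rated visually 0–100 versus controls.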"}, "[4]": {"test_system": "Septoria nodorum", "assay": "Test D: wheat glume blotch, preventive spray on wheat seedlings, visual disease rating", "assay_type": "in vivo", "settings": "Parastagonospora nodorum, 216 h", "in_short": "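Compounds in 3% acetone, then 50/50 acetone–water with 250 ppm Trem 014, sprayed to run-off at 200 ppm (500 g/ha; some at 40 ppm) one day before spore inoculation. Held 48 h saturated at 20 °C, then 7 days at 20 °C; visual rating as % disease control vs untreated (0–100).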"}, "[5]": {"test_system": "Alternaria solani", "assay": "Test E: tomato early blight, preventive spray on tomato seedlings, visual disease rating", "assay_type": "in vivo", "settings": "Alternaria solani, 168 h", "in_short": "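Seedlings sprayed to run-off with compound in acetone/water plus 250 ppm Trem 014 (200 ppm ≈ 500 g/ha), inoculated with spores next day. Held 48 h saturated at 27 °C, then 5 days at 20 °C; visual rating 0–100% disease control relative to controls.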"}, "[6]": {"test_system": "Botrytis cinerea", "assay": "Test F: tomato botrytis, preventive spray on tomato seedlings, visual disease rating", "assay_type": "in vivo", "settings": "Botrytis cinerea, 120 h", "in_short": "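Tomato seedlings sprayed to run-off with compound suspended in acetone/water (50/50) plus 250 ppm Trem 014, at 200 ppm (≈500 g/ha) or 40 ppm where marked. Inoculated next day with B. cinerea spores, 48 h saturated atmosphere at 20 °C, then 3 days at 24 °C. Visual rating, 0–100% disease control relative to controls.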"}, "[7]": {"test_system": "Rhizoctonia oryzae", "assay": "Test G: turf brown patch, preventive spray on creeping bent grass seedlings, visual disease rating", "assay_type": "in vivo", "settings": "Waitea circinata, in Agrostis stolonifera, 120 h, 200 ppm, 100 = 100% disease control, 0 = no control"}, "[8]": {"settings": "200 ppm, 100 = 100% disease control, 0 = no control"}, "[9]": {"settings": "40 ppm (compound number followed by *)"}}}
{"smiles": "COc1cc(OC)cc(-c2c(C(C)(C)O)cnc(C)c2-c2c(F)cc(F)cc2F)c1", "note": "[Compound 44, 4-(3,5-dimethoxyphenyl)-α,α,6-trimethyl-5-(2,4,6-trifluorophenyl)-3-pyridinemethanol]", "values": [{"measurement": "pest or weed control at 200 ppm", "setting": "[1]; [8]", "value": 99, "unit": "%"}, {"measurement": "pest or weed control at 200 ppm", "setting": "[2]; [8]", "value": 100, "unit": "%"}, {"measurement": "pest or weed control at 200 ppm", "setting": "[3]; [8]", "value": 100, "unit": "%"}, {"measurement": "pest or weed control at 200 ppm", "setting": "[4]; [8]", "value": 99, "unit": "%"}, {"measurement": "pest or weed control at 200 ppm", "setting": "[5]; [8]", "value": 100, "unit": "%"}, {"measurement": "pest or weed control at 200 ppm", "setting": "[6]; [8]", "value": 99, "unit": "%"}, {"measurement": "pest or weed control at 200 ppm", "setting": "[7]", "value": 86, "unit": "%"}, {"measurement": "melting point", "value": "166 to 167", "unit": "°C"}]}
{"smiles": "CCc1cnc(C)c(-c2c(F)cc(F)cc2F)c1-c1cc(OC)cc(OC)c1", "note": "[Compound 137, 4-(3,5-dimethoxyphenyl)-5-ethyl-2-methyl-3-(2,4,6-trifluorophenyl)pyridine]", "values": [{"measurement": "pest or weed control at 40 ppm", "setting": "[1]; [9]", "value": 100, "unit": "%"}, {"measurement": "pest or weed control at 40 ppm", "setting": "[2]; [9]", "value": 100, "unit": "%"}, {"measurement": "pest or weed control at 40 ppm", "setting": "[3]; [9]", "value": 100, "unit": "%"}, {"measurement": "pest or weed control at 40 ppm", "setting": "[4]; [9]", "value": 97, "unit": "%"}, {"measurement": "pest or weed control at 40 ppm", "setting": "[5]; [9]", "value": 99, "unit": "%"}, {"measurement": "pest or weed control at 40 ppm", "setting": "[6]; [9]", "value": 100, "unit": "%"}, {"measurement": "melting point", "value": "102 to 105", "unit": "°C"}]}
